# Experimental data taken from paper PMC7568253, “Evaluation of two xenobiotic reductases from Pseudomonas putida for their suitability for magnetic nanoparticle‐directed enzyme prodrug therapy as a novel approach to cancer treatment” (MicrobiologyOpen, 2020).
# Biological target: T1, XenA-his (Pseudomonas putida, UniProt Q9R9V9)
# T1 construct: about 39 kDa, described as monomeric flavoprotein
# T1 sequence (Q9R9V9 1-363): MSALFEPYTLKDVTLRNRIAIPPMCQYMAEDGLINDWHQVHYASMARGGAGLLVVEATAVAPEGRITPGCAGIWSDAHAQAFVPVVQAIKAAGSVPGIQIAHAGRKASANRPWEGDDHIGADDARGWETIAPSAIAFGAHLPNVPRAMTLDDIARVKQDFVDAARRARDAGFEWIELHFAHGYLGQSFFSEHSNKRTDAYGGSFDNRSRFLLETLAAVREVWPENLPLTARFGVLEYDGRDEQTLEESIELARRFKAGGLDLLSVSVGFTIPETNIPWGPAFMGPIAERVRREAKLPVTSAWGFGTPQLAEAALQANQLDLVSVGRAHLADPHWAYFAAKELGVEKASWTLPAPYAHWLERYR
# Experiment: reduction of nitro groups tested with purified enzyme
# Type: biochemical
structure (smiles),measurement,value
O=[N+]([O-])OCC(CO[N+](=O)[O-])O[N+](=O)[O-] [nitro-glycerin],reduction of nitro groups tested with purified enzyme,it was able to reduce the NO2 groups present in the substrate
